From ChEMBL document CHEMBL2321823, “Synthesis of novel analogs of cabergoline: improving cardiovascular safety by removing 5-HT2B receptor agonism” (ACS Med Chem Lett, 2013)

How the values were obtained:
[1] = biological target: T1, 5-hydroxytryptamine receptor 2B (Homo sapiens, UniProt P41595); assay: (§1) Partial agonist activity at human 5-HT2B receptor expressed in HEK293 cells assessed as intracellular calcium mobilization by FLIPR analysis; format: cell-based; settings: hek293
[2] = biological target: D(2) dopamine receptor (Homo sapiens) (UniProt P14416); assay: Partial agonist activity at human D2 receptor transfected in HTLA cells measured after overnight incubation by luminescence counter analysis; format: cell-based
Sequence of D(2) dopamine receptor (Homo sapiens) (P14416 whole entry): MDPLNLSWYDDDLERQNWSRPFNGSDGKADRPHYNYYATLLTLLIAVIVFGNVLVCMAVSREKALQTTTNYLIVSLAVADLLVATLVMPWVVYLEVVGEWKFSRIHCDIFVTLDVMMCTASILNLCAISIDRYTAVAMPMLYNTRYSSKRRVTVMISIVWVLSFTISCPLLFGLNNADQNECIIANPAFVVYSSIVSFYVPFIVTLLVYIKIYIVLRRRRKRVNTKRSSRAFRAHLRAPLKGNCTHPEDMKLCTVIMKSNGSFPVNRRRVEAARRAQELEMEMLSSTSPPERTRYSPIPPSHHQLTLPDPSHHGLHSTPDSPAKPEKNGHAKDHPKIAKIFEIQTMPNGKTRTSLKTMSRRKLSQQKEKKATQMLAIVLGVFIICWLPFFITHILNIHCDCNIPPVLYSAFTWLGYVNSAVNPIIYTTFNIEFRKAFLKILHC

[3] = biological target: T1, 5-hydroxytryptamine receptor 2B; assay: (§2) Agonist activity at human 5-HT2B receptor transfected in CHO cell assessed as IP1 production incubated for 30 mins measured by HTRF detection method; format: cell-based; settings: for Activity: human, cho, 0.5 h
[4] = biological target: 5-hydroxytryptamine receptor 2A (Homo sapiens, UniProt P28223); assay: Antagonist activity at human 5-HT2A receptor assessed as decrease in agonist-induced intracellular calcium mobilization preincubated for 10 mins prior to agonist addition measured by FLIPR analysis; format: functional, cell-based
Sequence of 5-hydroxytryptamine receptor 2A (P28223 whole entry): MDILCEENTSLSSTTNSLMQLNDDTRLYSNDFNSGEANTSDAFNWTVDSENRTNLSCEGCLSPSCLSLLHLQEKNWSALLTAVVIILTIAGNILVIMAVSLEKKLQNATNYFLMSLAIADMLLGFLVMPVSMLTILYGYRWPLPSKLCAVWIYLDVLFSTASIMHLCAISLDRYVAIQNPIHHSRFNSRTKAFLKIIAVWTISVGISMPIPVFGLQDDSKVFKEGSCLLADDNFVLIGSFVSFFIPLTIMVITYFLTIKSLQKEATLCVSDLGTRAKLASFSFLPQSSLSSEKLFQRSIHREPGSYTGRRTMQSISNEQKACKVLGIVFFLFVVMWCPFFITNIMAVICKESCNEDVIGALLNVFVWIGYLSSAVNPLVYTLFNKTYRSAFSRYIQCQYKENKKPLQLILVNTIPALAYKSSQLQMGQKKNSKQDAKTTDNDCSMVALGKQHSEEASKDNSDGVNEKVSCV

[5] = biological target: T1, 5-hydroxytryptamine receptor 2B; assay: Antagonist activity at human 5-HT2B receptor transfected in CHO cell assessed as decrease in 5-HT-induced IP1 production preincubated for 5 mins before 5-HT addition measured after 30 mins by HTRF detection method; format: functional, cell-based
[6] = biological target: T1, 5-hydroxytryptamine receptor 2B; assay: Displacement of [125I](+/-)DOI from human 5-HT2B receptor transfected in CHO cell membrane after 60 mins by scintillation counting analysis; format: cell membranes
5-HT2B receptor [7] = biological target: T2, 5-HT2B receptor (Homo sapiens, UniProt P41595); assay: as §2; format: cell-based; settings: human, CHO cells transfected with human 5-HT2B receptor
T2 sequence (P41595 whole entry): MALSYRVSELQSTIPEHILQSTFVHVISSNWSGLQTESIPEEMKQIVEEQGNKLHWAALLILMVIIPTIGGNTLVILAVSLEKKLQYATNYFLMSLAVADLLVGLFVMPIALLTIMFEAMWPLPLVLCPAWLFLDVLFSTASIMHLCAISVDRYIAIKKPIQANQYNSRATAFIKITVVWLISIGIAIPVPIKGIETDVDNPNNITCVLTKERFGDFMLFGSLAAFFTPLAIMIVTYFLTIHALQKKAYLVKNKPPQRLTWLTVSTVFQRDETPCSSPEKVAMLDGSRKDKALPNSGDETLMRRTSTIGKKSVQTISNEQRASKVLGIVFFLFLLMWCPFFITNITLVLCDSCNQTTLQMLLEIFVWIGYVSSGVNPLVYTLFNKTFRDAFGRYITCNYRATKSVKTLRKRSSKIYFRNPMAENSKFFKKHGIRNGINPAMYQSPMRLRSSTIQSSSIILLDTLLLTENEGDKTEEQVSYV

5-HT2B receptor [8] = biological target: T2, 5-HT2B receptor; assay: as §1; format: cell-based; settings: HEK293 cells expressing human 5-HT2B receptor

T1 sequence (P41595 whole entry): as above

With CCNC(=O)N(CCCN(C)C)C(=O)[C@@H]1C[C@@H]2c3cccc4c3c(cn4C)C[C@H]2N(C)C1 as the molecule, how does the Activity [1] read?
The Activity was “Not Active”.

What about the Emax [2] of the same molecule?
Its Emax is 50%.

What about the Activity [3] of the same molecule?
The Activity was “Not Active”.

What about the IC50 [4] of the same molecule?
Its IC50 is 11.5 µM.

What about the IC50 [5] of the same molecule?
The IC50 was 22 nM.

What about the Kb [5] of the same molecule?
Its Kb is 5.6 nM.

What about the Ki [6] of the same molecule?
The Ki was 1 nM.

COC(OC)[C@@H]1C[C@@H]2c3cccc4c3c(cn4C)C[C@H]2N(C)C1 was tested. Which Activity [1] did it give?
Its Activity is “Not Active”.

What about the Activity [3] of the same molecule?
The Activity was “Not Active”.

What about the IC50 [5] of the same molecule?
Its IC50 is 13 nM.

What about the Kb [5] of the same molecule?
Its Kb is 3.3 nM.

And the Ki [6]?
Its Ki is 0.54 nM.

With C=CCN1C[C@H](C(=O)N(CCCN(C)C)C(=O)NCC)C[C@@H]2c3cccc4[nH]cc(c34)C[C@H]21 [CABERGOLINE] as the molecule, how does the EC50 [3] read?
The EC50 was 13 nM.

What about the Emax at 0.5 h (5-HT2B receptor [7]) of the same molecule?
The Emax at 0.5 h was 103%.

And the Ki [6]?
Its Ki is 1.4 nM.

Which results are given for C=CCN1C[C@H](C(=O)N(CCCN2CCOCC2)C(=O)NCC)C[C@@H]2c3cccc4[nH]cc(c34)C[C@H]21?
EC50 [3]: 13 nM; Emax at 0.5 h (5-HT2B receptor [7]): 106%; Ki [6]: 7.1 nM

Which results are given for CN(C)CCCNC(=O)[C@@H]1C[C@@H]2c3cccc4c3c(cn4C)C[C@H]2N(C)C1?
Emax (5-HT2B receptor [8]): < 12%; Emax at 0.5 h (5-HT2B receptor [7]): < 12%; IC50 [5]: 37 nM; Kb [5]: 9.3 nM; Ki [6]: 0.97 nM
